Source: patent US11952593B2, “Detection and treatment of daughter number variations in cancer cells” (PharmacoGenetics Limited, priority 2020, dated 2024)

What was measured:
Assay type in all cases: cell-based, human
[1] = tested on: HeLa cells; test: Daughter-cell subgroups P1 through P8 in mitoses with DNV, HeLa; details: 24 hours, wogonin 50 μM, 5-FU 20 μM
Source text: “Daughter Number Variation” is a process that occurs during mitosis, where more than two daughter cells are produced per mitotic division. It is a two-stage process, wherein cell divisions of mono-nucleate, bi-nucleate, tri-nucleate and tetra-nucleate mother cells at Stage 1 produce subgroups of single mono-nucleate cells (herein referred to as P1), and subgroups containing one bi-nucleate cell and two mono-nucleate cells (herein referred to as P2). Stage 1 is followed by Stage 2, during which time some of the daughter cells from Stage 1 fuse to produce multi-nucleate cell subgroups, where the different subgroups differ with respect to the number of constituent cells and their nucleate status (herein referred to as P3 through P8). All the subgroups from a single DNV mitosis stay close to one another to form a distinct cluster when the cell culture is not overly dense with cells.
P1 subgroup cells are daughter mono-nucleate cells resulting from mitoses with DNV that have not undergone any post-mitotic cell fusion. P2 subgroup daughter cells are clusters of one bi-nucleate cell and two mono-nucleate cells, which also have not undergone any post-mitotic cell fusion during DNV, whereas each of the multi-nucleated subgroups contains at least one cell that is generated from post-mitotic fusions between the Stage 1 cells. P3 through P8 are daughter cell subgroups, which result from cell fusions during DNV, and wherein each subgroup includes at least one multinucleate cell.
By way of example and not of limitation, there is at least one multinucleate cell with two nuclei in P3 and P5, one multinucleate cell with three nuclei in P4 and P6, one multinucleate cell with four nuclei in P7, and one multinucleate cell with five nuclei in P8, sharing the same cytoplasm. More specifically, P3 cell subgroups are clusters of one multinucleate cell with two nuclei and one mononucleate cell, P4 cell subgroups are one multinucleate cell with three nuclei, P5 cell subgroups are clusters of either two multinucleate cells with two nuclei or one multinucleate cell with two nuclei and one binucleate cell, P6 cell subgroups are clusters of one multinucleate cell with three nuclei and one mononucleate cell, P7 cell subgroups are one multinucleate cell with four nuclei, and P8 cell subgroups are one multinucleate cell with five nuclei. P1 through P8 cell subgroups are depicted in detail in FIG. 2.
The counts of P1 and P2 subgroups of cancer cells are then used to obtain their proportions based on the total number of cell subgroups P1 through P8 that resulted from mitotic DNVs during the predetermined period of time. The proportions are typically expressed as percentages. The proportion of P1 subgroup of cells is calculated as (number of P1 subgroups)+(total number of daughter cell subgroups)×100%, and the proportion of (P1 and P2) subgroup is calculated as (number of P1 subgroups+number of P2 subgroups)+(total number of daughter cell subgroups)×100%. This can also be expressed as (number of P1 subgroups)+(total number of P1 through P8 subgroups)×100%, or (number of P1 subgroups+number of P2 subgroups)+(total number of P1 through P8 subgroups)×100%, respectively.
To investigate DNVs, the human HepG2 hepatocellular carcinoma, HeLa cervical adenocarcinoma, and A549 lung adenocarcinoma cell lines, as well as the non-cancerous RPE1 line of hTRET-immortalized retina epithelial cells, were obtained from the American Type Culture Collection (ATCC, Manassas, Va., USA) and cultivated in Dulbecco's Modified Eagle Medium (DMEM) supplemented with 10% fetal bovine serum (Gemini Bio-Products, Sacramento. Calif.) under a humidified atmosphere of 5% C02 at 37° C. […]

[2] = tested on: HepG2 cells; test: Cell cytotoxicity assay (crystal violet), HepG2; details: HepG2, 24 hours, 50 μM wogonin, 20 μM 5-FU, absorbance 600 nm
Method: (§1) Cell cytotoxicity assay was carried out on 96 well plate, where cells were treated with neutral, acidic, alkaline pH and anti-cancer drug wogonin or 5-FU. After 24 hours, crystal violet (8% in methanol), and dye absorbed by live cells was extracted with sodium citrate (0.1 M) in 50% ethanol. Absorbance was read at 600 nm.
(§2) HepG2, HeLa and A549 cells were grown to a monolayer density of 1×10^3 per well in neutral growth medium overnight. There upon the cells were changed to various treatment media at neutral, acidic and alkaline pHs, neutral medium containing 50 μM wogonin and neutral medium containing 20 μM 5-FU, for 24 hours at 37° C. in humidified 5% CO2 atmosphere. Following the treatment, floating cells were removed, and the attached cells were stained with crystal violet (8% in methanol); the dye absorbed by the live cells was extracted with sodium citrate (0.1 M) in 50% ethanol [1 25], and quantitated by absorbance at 600 nm.

[3] = tested on: HeLa cells; test: Cell cytotoxicity assay (crystal violet), HeLa; details: 24 hours, 50 μM wogonin, 20 μM 5-FU, absorbance 600 nm
Method: as §1, §2

| SMILES | Mitoses with DNV, number [1] | P1 + P2 subgroups, number [1] | P1 subgroups, number [1] | P2 subgroups, % of all P1 through P8 subgroups [1] | P2 subgroups, number [1] | P3 subgroups, % of all P1 through P8 subgroups [1] | P3 subgroups, number [1] | P4 subgroups, number [1] | P5 subgroups, number [1] | P6 subgroups, number [1] | P7 subgroups, number [1] | P8 subgroups, number [1] | Cell death as compared to neutral pH [2] | Cell death as compared to neutral pH [3] | P1 + P2 subgroups, % of all P1 through P8 subgroups [1] | P1 subgroups, % of all P1 through P8 subgroups [1] | P4 subgroups, % of all P1 through P8 subgroups [1] | P1 + P2 subgroups, % of all P1 through P8 subgroups ([1]; listed as wogonin) | P1 subgroups, % of all P1 through P8 subgroups ([1]; listed as wogonin) |
| --- | --- | --- | --- | --- | --- | --- | --- | --- | --- | --- | --- | --- | --- | --- | --- | --- | --- | --- | --- |
| O=c1[nH]cc(F)c(=O)[nH]1 [5-FU, 5-flurouracil] | 13 | 12 | 10 | (15.3) % | 2 | (7.6) % | 1 | 0 | 0 | 0 | 0 | 0 | increased cell death | increased cell death |  |  |  |  |  |
| COc1c(O)cc(O)c2c(=O)cc(-c3ccccc3)oc12 [Wogonin, wogonin] | 31 | 19 | 16 | (9.6) % | 3 | (32.2) % | 10 | 2 | 0 | 0 | 0 | 0 | increased cell death | increased cell death | (61.2) % | (51.6) % | (6.4) % | 61.2% | 51.6% |
